Test results from US9868692B2, “Compounds and compositions for intracellular delivery of therapeutic agents” (MODERNATX, Inc., priority 2015, dated 2018).
Each block holds one molecule with its values, some of them ahead of it.

Key:
hEPO mRNA expression = test: hEPO expression after intravenous administration to mice; type: in vivo; conditions: i.v., 0.5 mpk, 3, 6 and 24 hours
Method: Sample formulations of nanoparticle compositions including different lipids are generally first evaluated according to Luc expression in vivo. The activity of several such compositions was further evaluated using an mRNA encoding hEPO. Nanoparticle compositions including Compounds 6, 18, 25, 30, 108-112, 60, and 122, or MC3 were prepared according to Example 2.
The expression of hEPO and cytokine induction in mice intravenously administered a nanoparticle composition at a dose of 0.5 mpk were measured at 3, 6, and 24 hours. […] The expression of hEPO in mice intramuscularly administered a nanoparticle composition from Table 1B at a dose of 0.01 mpk were measured at 3, 6, and 24 hours. […] (see also FIG. 9.)

[1] = system: luciferase (Luc) mRNA expression; test: Luc expression (total flux) after intramuscular administration; type: in vivo, mice; conditions: i.m.
Method: The numbers 1-7 in this figure correspond to MC3, Compounds 168-170, and 173-175 respectively.
Sample formulations including both modified luciferase (Luc) mRNA and H10 mRNA were prepared and administered intramuscularly and the resulting expression and immunogenicity were evaluated simultaneously. Formulations including compounds according to Formula (I), (IA), (II), (IIa), (IIb), (IIc), (IId) or (IIe) were prepared and administered at doses of 0.001 and 0.01 mpk (e.g., doses of 0.0005 mpk of a formulation including Luc mRNA and a formulation including H10 mRNA or doses of 0.005 mpk of a formulation including Luc mRNA and a formulation including H10 mRNA).
Sample formulations including modified luciferase (Luc) mRNA prepared and administered intramuscularly and the resulting expression and immunogenicity were evaluated simultaneously. Formulations including compounds according to Formula (I), (IA), (II), (IIa), (IIb), (IIc), (IId) or (IIe) were prepared and administered at dose of […] 0.01 mpk.
The fluxes measured upon intravenous and intramuscular administration are compared in Table 6. Fluxes are presented as fold increase over that measured for MC3 formulations.

[2] = Particle size, polydispersity index (and zeta potential) of nanoparticle compositions, Zetasizer Nano ZS; type: physicochemical; conditions: Table 1A; lipid:DSPC:cholesterol:PEG-DMG 50:10:38.5:1.5 mol %, mRNA
Source text: Nanoparticle compositions may be characterized by a variety of methods. For example, microscopy (e.g., transmission electron microscopy or scanning electron microscopy) may be used to examine the morphology and size distribution of a nanoparticle composition. Dynamic light scattering or potentiometry (e.g., potentiometric titrations) may be used to measure zeta potentials. Dynamic light scattering may also be utilized to determine particle sizes. Instruments such as the Zetasizer Nano ZS (Malvern Instruments Ltd, Malvern, Worcestershire, UK) may also be used to measure multiple characteristics of a nanoparticle composition, such as particle size, polydispersity index, and zeta potential.
A Zetasizer Nano ZS (Malvern Instruments Ltd, Malvern, Worcestershire, UK) can be used to determine the particle size, the polydispersity index (PDI) and the zeta potential of the nanoparticle compositions in 1×PBS in determining particle size and 15 mM PBS in determining zeta potential.

[3] = Encapsulation efficiency of RNA, QUANT-IT RIBOGREEN RNA assay; type: physicochemical; conditions: Table 1A formulations
Source text: The efficiency of encapsulation of a therapeutic and/or prophylactic describes the amount of therapeutic and/or prophylactic that is encapsulated or otherwise associated with a nanoparticle composition after preparation, relative to the initial amount provided. The encapsulation efficiency is desirably high (e.g., close to 100%). The encapsulation efficiency may be measured, for example, by comparing the amount of therapeutic and/or prophylactic in a solution containing the nanoparticle composition before and after breaking up the nanoparticle composition with one or more organic solvents or detergents. Fluorescence may be used to measure the amount of free therapeutic and/or prophylactic (e.g., RNA) in a solution. For the nanoparticle compositions described herein, the encapsulation efficiency of a therapeutic and/or prophylactic may be at least 50%, for example 50%, 55%, 60%, 65%, 70%, 75%, 80%, 85%, 90%, 91%, 92%, 93%, 94%, 95%, 96%, 97%, 98%, 99%, or 100%. In some embodiments, the encapsulation efficiency may be at least 80%. In certain embodiments, the encapsulation efficiency may be at least 90%.
For nanoparticle compositions including an RNA, a QUANT-IT™ RIBOGREEN® RNA assay (Invitrogen Corporation Carlsbad, Calif.) can be used to evaluate the encapsulation of an RNA by the nanoparticle composition. The samples are diluted to a concentration of approximately 5 μg/mL in a TE buffer solution (10 mM Tris-HCl, 1 mM EDTA, pH 7.5). 50 μL of the diluted samples are transferred to a polystyrene 96 well plate and either 50 μL of TE buffer or 50 μL of a 2% Triton X-100 solution is added to the wells. The plate is incubated at a temperature of 37° C. for 15 minutes. The RIBOGREEN® reagent is diluted 1:100 in TE buffer, and 100 μL of this solution is added to each well. The fluorescence intensity can be measured using a fluorescence plate reader (Wallac Victor 1420 Multilablel Counter; Perkin Elmer, Waltham, Mass.) at an excitation wavelength of, for example, about 480 nm and an emission wavelength of, for example, about 520 nm. The fluorescence values of the reagent blank are subtracted from that of each of the samples and the percentage of free RNA is determined by dividing the fluorescence intensity of the intact sample (without addition of Triton X-100) by the fluorescence value of the disrupted sample (caused by the addition of Triton X-100).

[4] = system: luciferase (Luc) mRNA expression; test: Luc expression (total flux, bioluminescence) after intravenous administration to mice; type: in vivo; conditions: i.v., 0.5 mg/kg, 3, 6 and 24 hours, versus other compositions
Method: In order to monitor how effectively various nanoparticle compositions deliver therapeutic and/or prophylactics to targeted cells, different nanoparticle compositions including a particular therapeutic and/or prophylactic (for example, a modified or naturally occurring RNA such as an mRNA) are prepared and administered to rodent populations. Mice are intravenously, intramuscularly, intraarterially, or intratumorally administered a single dose including a nanoparticle composition with a formulation such as those provided in Example 3. In some instances, mice may be made to inhale doses. Dose sizes may range from 0.001 mg/kg to 10 mg/kg, where 10 mg/kg describes a dose including 10 mg of a therapeutic and/or prophylactic in a nanoparticle composition for each 1 kg of body mass of the mouse. A control composition including PBS may also be employed.
Upon administration of nanoparticle compositions to mice, dose delivery profiles, dose responses, and toxicity of particular formulations and doses thereof can be measured by enzyme-linked immunosorbent assays (ELISA), bioluminescent imaging, or other methods. For nanoparticle compositions including mRNA, time courses of protein expression can also be evaluated. Samples collected from the rodents for evaluation may include blood, sera, and tissue (for example, muscle tissue from the site of an intramuscular injection and internal tissue); sample collection may involve sacrifice of the animals.
The efficacy of the nanoparticle compositions presented in Table 1A was evaluated with a bioluminescence study. Formulations were administered intravenously to mice (n=6) at a dosage of 0.5 mg/kg (mpk) and bioluminescence measured at 3, 6, and 24 hour time points. The standard MC3 formulation and, in some instances, a control (e.g., a PBS control) were evaluated for comparison. […] In general, flux decreased as time progressed to less than 10% of the initial flux.
The total flux (measured by area under the curve, AUC) induced by administration of a formulation including a given lipid relative to that induced by administration of a formulation including MC3 was also measured for several lipids.

[5] = Lipid clearance: % dose remaining in liver after administration of Luc formulations; type: in vivo, mice; conditions: Table 3D
[6] = Clinical chemistry and hematology after intravenous administration to rat; type: in vivo; conditions: i.v., 2 mpk, 48 h post dose
Method: Sample formulations of nanoparticle compositions including different lipids were administered intravenously to rat at a dose of 2 mpk. The expression of various clinical markers was evaluated at 48 h post dose and compared to that induced by administration of MC3 formulations or phosphate buffered saline (PBS).
Table 19 summarizes the hEPO expression, IP-10 induction, liver and spleen levels, and alanine aminotransferase (ALT) and aspartate aminotransferase (AST) measured upon intravenous administration of formulations including Compounds 48, 49, and 50 to rat at 0.2 and 2 mpk and hEPO mRNA. hEPO concentrations were measured 6 hours after administration, while cytokine induction and liver and spleen levels were measured 48 hours after administration. hEPO and IP-10 concentrations are presented in pg/ml, while liver levels are provided in ng/g. ALT and AST levels are presented in international units.

[7] = Residual lipid level in liver of rats (UPLC-MS quantification); type: in vivo; conditions: rat; for concentration at 48 h: intravenous
Method: (§1) To pre-weighed tissues, Milli-Q water was added (900 μL water per 100 mg tissue). Tissues were homogenized using an Omni probe homogenizer until uniform. 50 μL of samples and matrix calibration standards were aliquoted into a 96-well plate. 50 μL of blank matrix for matrix blanks and control blanks were aliquoted. 400 μL IS spiking solution were manually added to all samples except matrix blanks. 400 μL of 50:50 ACN:IPA were manually added to matrix blanks. The plate was covered and the samples vortexed and centrifuged for 5 minutes at >3000 rpm. 200 μL of the samples were transferred into a clean 96-well plate for analysis. […] Detection was based on electrospray ionization (ESI) in positive mode using a Sciex API5500 Mass Spectrometer.
(§2) The expression of hEPO in rats intravenously administered a nanoparticle composition at a dose of 0.2 mpk or 2.0 mpk was measured at 6 hours. […] Liver and spleen levels represent the average values calculated for 3 rats in each group.
(§3) The expression of hEPO and lipid levels in the liver and spleen in rats intravenously administered a nanoparticle composition at a dose of 0.2 mpk was measured at various timepoints. […] Lipids were formulated according to the standard MC3 formulation described above.

[8] = Residual lipid level in spleen of rats (UPLC-MS quantification); type: in vivo; conditions: rat
Method: as §1, §2, §3

SMILES: CCCCC/C=C\C/C=C\CCCCCCCCN(CCO)CCCCCCCC(=O)OC(CCCCCCCC)CCCCCCCC [Compound 6, Heptadecan-9-yl 8-((2-hydroxyethyl)((9Z,12Z)-octadeca-9,12-dien-1-yl)amino)octanoate]
hEPO concentrations versus MC3 formulations at each time point (hEPO mRNA expression): higher hEPO concentrations than MC3 formulations

SMILES: CCCCCCCCCOC(=O)CCCCCCCN(CCCCO)CCCCCCCC(=O)OC(CCCCCCCC)CCCCCCCC [Compound 20, Heptadecan-9-yl 8-((4-hydroxybutyl)(8-(nonyloxy)-8-oxooctyl)amino) octanoate]
expression at both dose levels ([1]; 0.001 and 0.01 mpk): highest expression | Total flux (p/s) 0.01 mpk Dose ([1]; 6 hours, Luc mRNA and H10 mRNA, 0.01 mpk (Table 5A)): 9.72E+07 p/s

Size (nm) [2]: 184.4 nm | EE (%) [3]: 85.7%
SMILES: CCCCCCCCCCCCN(CCO)CCCCCCCCCCCC(=O)OC [Compound 137, Methyl 12-(dodecyl(2-hydroxyethyl)amino)dodecanoate]
flux at all time points measured [4]: significantly lower flux

% Dose Remaining in Liver 6h ([5]; first column of this head): 80% | % Dose Remaining in Liver 6h ([5]; second column of this head): 54% | Concentration Alanine aminotransferase [6]: 339 | Concentration Aspartate aminotransferase [6]: 325 | Concentration Lymphocytes [6]: 19976 | Concentration Monocytes [6]: 1429 | Concentration Neutrophils [6]: 4962.5 | % Lipid Remaining in liver, 48 h 2 mpk ([7]; 2 mpk, 48 h, assuming 300 g rat and 15 g liver): 87% | lipid remained in the liver after 48 hours ([7]; 48 hours after administration (text to Tables 17 and 18)): greater than 60% | concentration at 48 h ([7]; liver, 0.2 mg/kg, 0.2 mpk, 48 h, average of 3 rats, read-out: Liver level): 25000 ng/g | concentration at 48 h ([7]; liver, 2 mg/kg, 2 mpk, 48 h, average of 3 rats, read-out: Liver level): 285000 ng/g | concentration at 0.25 h ([7]; liver, iv, 0.2 mg/kg, 0.2 mpk, 0.25 h): 13200 ng/g | concentration at 0.5 h ([7]; liver, iv, 0.2 mg/kg, 0.2 mpk, 0.5 h): 20500 ng/g | concentration at 1 h ([7]; liver, iv, 0.2 mg/kg, 0.2 mpk, 1 h): 16800 ng/g | concentration at 2 h ([7]; liver, iv, 0.2 mg/kg, 0.2 mpk, 2 h): 26000 ng/g | concentration at 4 h ([7]; liver, iv, 0.2 mg/kg, 0.2 mpk, 4 h): 24700 ng/g | concentration at 8 h ([7]; liver, iv, 0.2 mg/kg, 0.2 mpk, 8 h): 32600 ng/g | concentration at 24 h ([7]; liver, iv, 0.2 mg/kg, 0.2 mpk, 24 h): 33000 ng/g | concentration at 48 h ([7]; liver, iv, 0.2 mg/kg, 0.2 mpk, 48 h, read-out: Lipid level in liver): 13200 ng/g | concentration at 48 h ([7]; liver, iv, 0.2 mg/kg, 0.2 mpk, 48 hours, read-out: Liver level): 11300 ng/g | concentration at 48 h ([7]; liver, iv, 2 mg/kg, 2 mpk, 48 hours, read-out: Liver level): 141000 ng/g | concentration at 48 h ([8]; intravenous, 0.2 mg/kg, 0.2 mpk, average of 3 rats, read-out: Spleen level): 9440 ng/g | concentration at 48 h ([8]; intravenous, 2 mg/kg, 2 mpk, average of 3 rats, read-out: Spleen level): 129000 ng/g | concentration at 0.25 h ([8]; iv, 0.2 mg/kg, 0.2 mpk, 0.25 h): 4100 ng/g | concentration at 0.5 h ([8]; iv, 0.2 mg/kg, 0.2 mpk, 0.5 h): 6240 ng/g | concentration at 1 h ([8]; iv, 0.2 mg/kg, 0.2 mpk, 1 h): 4200 ng/g | concentration at 2 h ([8]; iv, 0.2 mg/kg, 0.2 mpk, 2 h): 8610 ng/g | concentration at 4 h ([8]; iv, 0.2 mg/kg, 0.2 mpk, 4 h): 11900 ng/g | concentration at 8 h ([8]; iv, 0.2 mg/kg, 0.2 mpk, 8 h): 21200 ng/g | concentration at 24 h ([8]; iv, 0.2 mg/kg, 0.2 mpk, 24 h): 19100 ng/g | concentration at 48 h ([8]; iv, 0.2 mg/kg, 0.2 mpk, read-out: Lipid level in spleen): 11600 ng/g
SMILES: CCCCCC=CCC=CCCCCCCCCC(CCCCCCCCC=CCC=CCCCCC)OC(=O)CCCN(C)C (stereo not shown) [MC3, heptatriaconta-6,9,28,31-tetraen-19-yl 4-(dimethylamino)butanoate, reference compound]
